Source: US20100297330A1, “YOGHURT CONTAINING HYDROXYTYROSOL AND OTHER BIOPHENOLS WITH A PREVENTIVE NUTRITIONAL ACTIVITY BENEFICIAL TO HUMAN BEINGS” (priority 2007, published 2010)

Tests used:
cell membranes = conditions: cited from earlier work
mammals = assay: toxicity in mammals (unpublished proprietary studies); type: in vivo; conditions: 2 g/kg of body weight
human cell systems = conditions: cited from earlier work

## OCCc1ccc(O)c(O)c1 [HT, Hydroxytyrosol]
Cell membranes
  permeation of the cell membranes, mechanism: passive mechanism
mammals
  toxicity or evident alterations in the internal organs: does not cause toxicity or evident alterations in the internal organs
Human cell systems
  effect on cytotoxic effects of reactive oxygen species: effectively counteracts the cytotoxic effects
